Assay results reported in ChEMBL document CHEMBL1140359, “Solid-phase synthesis and anti-infective activity of a combinatorial library based on the natural product anisomycin” (Bioorg Med Chem Lett, 2005).
Values after ≈ are worked out from the molar mass of the structure shown.

Columns and labels:
Staphylococcus aureus [1] = assay: Percent inhibition against MraY/MurG in Staphylococcus aureus cell walls at 25 uM; assay type: functional
Staphylococcus aureus [2] = assay: Percent inhibition against MurPath in Staphylococcus aureus cell walls at the concentration of 25 uM; assay type: functional
Staphylococcus aureus [3] = assay: Minimum inhibitory concentration against Staphylococcus aureus; assay type: functional
HEK293 = assay: Inhibitory concentration required to produce cytotoxicity against HEK293 cells; assay type: functional, cell-based; conditions: Homo sapiens
Candida albicans [4] = assay: Percent inhibition against RG-1 mutant strain of Candida albicans at 15.5 uM; assay type: functional
Candida albicans [5] = assay: Percent inhibition against efflux-deficient strain of Candida albicans at 15.5 uM; assay type: functional

| MIC (Staphylococcus aureus [3]) [µg/mL] | Structure (SMILES) | inhibition at 25 µM (Staphylococcus aureus [1]) [%] | inhibition at 25 µM (Staphylococcus aureus [2]) [%] | IC50 (HEK293) [µM] | inhibition at 15.5 µM (Candida albicans [4]) [%] | inhibition at 15.5 µM (Candida albicans [5]) [%] |
| --- | --- | --- | --- | --- | --- | --- |
| 32 (≈ 51.4 µM) | COc1ccc(C[C@@H]2[C@H](OC(=O)N3CCN(C)CC3)[C@@H](O)CN2C(=O)c2cc(-c3ccc(Cl)cc3)oc2C(F)(F)F)cc1 | 10 | < 5 | 10 | – | – |
| – | COc1ccc(C[C@@H]2[C@H](OC(=O)NCc3ccc(F)cc3)[C@@H](O)CN2C(=O)c2cc(C(F)(F)F)cc(C(F)(F)F)c2)cc1 | – | – | 8 | < 5 | 87 |
| – | CCOC(=O)N1C[C@H](O)[C@@H](OC(=O)NCc2ccccc2-c2ccccc2)[C@H]1Cc1ccc(OC)cc1 | – | – | 22 | 14 | 83 |
| – | COc1ccc(C[C@@H]2[C@H](OC(=O)NCc3ccccc3-c3ccccc3)[C@@H](O)CN2C(=O)OCC(C)C)cc1 | – | – | 11 | < 5 | 82 |
| – | COc1ccc(C[C@@H]2[C@H](OC(=O)NCc3ccccc3F)[C@@H](O)CN2C(=O)c2cc(C(F)(F)F)cc(C(F)(F)F)c2)cc1 | – | – | 10 | < 5 | 87 |
| 16 (≈ 25.8 µM) | COc1ccc(C[C@@H]2[C@H](OC(=O)N[C@@H]3CCN(Cc4ccccc4)C3)[C@@H](O)CN2C(=O)Nc2ccc(-c3ccccc3)cc2)cc1 | 20 | < 5 | 2 | – | – |
| 16 (≈ 22.5 µM) | COc1ccc(C[C@@H]2[C@H](OC(=O)NC3CCN(Cc4ccccc4)CC3)[C@@H](O)CN2C(=O)c2cc(-c3ccc(Cl)cc3)oc2C(F)(F)F)cc1 | < 5 | < 5 | 8 | – | – |
| – | CCCOC(=O)N1C[C@H](O)[C@@H](OC(=O)NCc2ccccc2-c2ccccc2)[C@H]1Cc1ccc(OC)cc1 | – | – | 9 | 10 | 96 |
| – | COc1ccc(C[C@@H]2[C@H](OC(=O)NCc3ccccc3)[C@@H](O)CN2C(=O)c2cc(C(F)(F)F)cc(C(F)(F)F)c2)cc1 | – | – | 16 | 8 | 87 |

| Structure (SMILES) | MIC (Staphylococcus aureus [3]) [µg/mL] | inhibition at 25 µM (Staphylococcus aureus [1]) [%] | inhibition at 25 µM (Staphylococcus aureus [2]) [%] | IC50 (HEK293) [µM] | inhibition at 15.5 µM (Candida albicans [4]) [%] | inhibition at 15.5 µM (Candida albicans [5]) [%] |
| --- | --- | --- | --- | --- | --- | --- |
| COc1ccc(C[C@H]2NC[C@H](O)[C@H]2OC(C)=O)cc1 [ANISOMYCIN] | > 32 | – | – | 0.02 | – | > 99 |
